Laboratory results reported in patent US9924721B2 (priority 2013, dated 2018).
Marks after values point to notes of the source that are not given here.

Experiments:
physchem = settings: pH 2.7
Pythium ultimum = Pythium ultimum in vitro cell test; type: cell-based; settings: 4 days incubation
Procedure: Pythium ultimum In Vitro Cell Test
• Solvent: DMSO • Culture medium: 14.6 g anhydrous D-glucose (VWR), 7.1 g Mycological Peptone (Oxoid), 1.4 g granulated Yeast Extract (Merck), QSP liter • Inoculum: mycelial suspension
Fungicides were solubilized in DMSO and the solution used to prepare the required range of concentrations. The final concentration of DMSO used in the assay was ≤1%.
Inoculum was prepared from a pre-culture of P. ultimum grown in liquid medium by homogenization using a blender. The concentration of ground mycelium in the inoculum was estimated and adjusted to the desired optical density (OD).
Fungicides were evaluated for their ability to inhibit mycelium growth in liquid culture assay. The compounds were added in the desired concentrations to culture medium containing the mycelial suspension. After 4 days of incubation, the fungicidal efficacy of compounds was determined by spectrometric measurement of mycelium growth. Inhibition of fungal growth was determined by comparing the absorbance values in wells containing the fungicides with the absorbance in control wells without fungicides.

Phytophthora infestans = assay: microbe, parasite or virus in culture; type: cell-based; settings: 8 days incubation
[1] = pH 2.7
[2] = 0.25 μg/mL of active ingredient

Compound	chromatographic logP (physchem)	Eff. % (inhibition of fungal growth) (Pythium ultimum; 20 μg/mL of active ingredient) [%]	Eff. % (inhibition of fungal growth) (Phytophthora infestans; 20 μg/mL of active ingredient) [%]	Log P [1]	Eff. % (inhibition of fungal growth) (Phytophthora infestans; [2]) [%]	Eff. % (inhibition of fungal growth) (Pythium ultimum; of active ingredient) [%]
C#CCOc1ccccc1C1CC(c2csc(C3CCN(C(=O)OC(C)(C)C)CC3)n2)=NO1 (centres unmarked) [tert-butyl 4-(4-{5-[2-(prop-2-yn-1-yloxy)phenyl]-4,5-dihydro-1,2-oxazol-3-yl}-1,3-thiazol-2-yl)piperidine-1-carboxylate]	4.07					
CCCCCC(CC)OC(=O)CC(=O)N1CCC(c2nc(C3=NOC(c4ccccc4C=O)C3)cs2)CC1 (centres unmarked) [Example I-55]		70	100	4.27^[a]		
N#CC1CCN(C(=O)C(Br)C(=O)OCc2ccccc2)CC1 (centres unmarked) [IV-03, benzyl 2-bromo-3-(4-cyanopiperidin-1-yl)-3-oxopropanoate]	2.24					
C#CCOc1cccc(F)c1C1CC(c2csc(C3CCN(C(=O)C(Br)C(=O)OCC)CC3)n2)=NO1 (centres unmarked) [Example I-26]		100	100	2.98^[a]		
CCOC(=O)C(Br)C(=O)N1CCC(c2nc(C3=NOC(c4c(F)cccc4OS(C)(=O)=O)C3)cs2)CC1 (centres unmarked) [Example I-27]		100	100	2.72^[a]		
CCOC(=O)C(C(=O)N1CCC(c2nc(C3=NOC(c4ccccc4OS(C)(=O)=O)C3)cs2)CC1)n1nc(C(F)(F)F)nc1C (centres unmarked) [Example I-06]		94	100	3.14^[a]		
C#CCOc1cccc(F)c1C1CC(c2csc(C3CCN(C(=O)C(C(=O)OCC)n4nc(C(F)F)cc4C(F)F)CC3)n2)=NO1 (centres unmarked) [Example I-04]		92		3.57^[a]	100	
CCOC(=O)C(Br)C(=O)N1CCC(c2nc(C3=NOC(c4ccccc4OS(C)(=O)=O)C3)cs2)CC1 (centres unmarked) [Example I-33]		99	100	2.72^[a]		
C#CCOc1cccc(Cl)c1C1CC(c2csc(C3CCN(C(=O)C(C(=O)OC(C)(C)C)n4nc(C(F)F)cc4C(F)F)CC3)n2)=NO1 (centres unmarked) [Example I-63]				4.31^[a]	100	90
CCOC(=O)C(Br)C(=O)N1CCC(c2nc(C3=NOC(c4c(Cl)cccc4OS(C)(=O)=O)C3)cs2)CC1 (centres unmarked) [Example I-34]		94	100	2.92^[a]		
CC(C)OC(=O)CC(=O)N1CCC(c2nc(C3=NOC(c4c(F)cccc4OS(C)(=O)=O)C3)cs2)CC1 (centres unmarked) [Example I-47]		93	100	2.53^[a]		
CCOC(=O)CC(=O)N1CCC(c2nc(C3=NOC(c4ccccc4OS(C)(=O)=O)C3)cs2)CC1 (centres unmarked) [Example I-50]		94	98	2.30^[a]		
C#CCOc1ccccc1C1CC(c2csc(C3CCN(C(=O)CC(=O)OC(C)C)CC3)n2)=NO1 (centres unmarked) [Example I-52]		86	87	2.94^[a]		
C#CCOc1cccc(F)c1C1CC(c2csc(C3CCN(C(=O)CC(=O)OC(CC)CCCCC)CC3)n2)=NO1 (centres unmarked) [Example I-40]		93	100	4.42^[a]		
CCOC(=O)CC(=O)N1CCC(c2nc(C3=NOC(c4c(Cl)cccc4OS(C)(=O)=O)C3)cs2)CC1 (centres unmarked) [Example I-49]		88	100	2.53^[a]		
C#CCOc1ccccc1C1CC(c2csc(C3CCN(C(=O)C(C(=O)OC(C)C)n4nc(C(F)F)cc4C(F)F)CC3)n2)=NO1 (centres unmarked) [Example I-09]		97	98	3.93^[a]		
CCOC(=O)C(C(=O)N1CCC(c2nc(C3=NOC(c4ccccc4OS(C)(=O)=O)C3)cs2)CC1)n1nc(C(F)F)cc1C(F)F (centres unmarked) [Example I-11]		97	100	3.28^[a]		

Compound	chromatographic logP (physchem)	Eff. % (inhibition of fungal growth) (Pythium ultimum; 20 μg/mL of active ingredient) [%]	Eff. % (inhibition of fungal growth) (Phytophthora infestans; 20 μg/mL of active ingredient) [%]	Log P [1]	Eff. % (inhibition of fungal growth) (Phytophthora infestans; [2]) [%]	Eff. % (inhibition of fungal growth) (Pythium ultimum; of active ingredient) [%]
C#CCOc1ccccc1C1CC(c2csc(C3CCN(C(=O)C(C(=O)OCC)n4nc(C(F)F)cc4C(F)F)CC3)n2)=NO1 (centres unmarked) [Example I-15, ethyl 2-[3,5-bis(difluoromethyl)-1H-pyrazol-1-yl]-3-oxo-3-[4-(4-{5-[2-(prop-2-yn-1-yloxy)phenyl]-4,5-dihydro-1,2-oxazol-3-yl}-1,3-thiazol-2-yl)piperidin-1-yl]propanoate]	3.69					
CC(C)OC(=O)C(C(=O)N1CCC(c2nc(C3=NOC(c4c(F)cccc4OS(C)(=O)=O)C3)cs2)CC1)n1nc(C(F)F)cc1C(F)F (centres unmarked) [Example I-17]				3.49^[a]	100	99
C#CCOc1ccccc1C1CC(c2csc(C3CCN(C(=O)C(Br)C(=O)OCC)CC3)n2)=NO1 (centres unmarked) [Example I-30, ethyl 2-bromo-3-oxo-3-[4-(4-{5-[2-(prop-2-yn-1-yloxy)phenyl]-4,5-dihydro-1,2-oxazol-3-yl}-1,3-thiazol-2-yl)piperidin-1-yl]propanoate]	3.18					
C#CCOc1ccccc1C1CC(c2csc(C3CCN(C(=O)C(C(=O)OC(C)(C)C)n4nc(C(F)F)cc4C(F)F)CC3)n2)=NO1 (centres unmarked) [Example I-65]				4.16^[a]	100	91
CCOC(=O)C(C(=O)N1CCC(c2nc(C3=NOC(c4ccccc4OS(C)(=O)=O)C3)cs2)CC1)n1nc(C)nc1C (centres unmarked) [Example I-20]		87	100	2.24^[a]		
CCOC(=O)C(C(=O)N1CCC(c2nc(C3=NOC(c4ccccc4OS(C)(=O)=O)C3)cs2)CC1)n1nc(C(F)(F)F)cc1C (centres unmarked) [Example I-19]			100	3.42^[a]		
C#CCOc1cccc(Cl)c1C1CC(c2csc(C3CCN(C(=O)C(C(=O)OCc4ccccc4)n4nc(C(F)F)cc4C(F)F)CC3)n2)=NO1 (centres unmarked) [Example I-59]				4.28^[a]	100	
COCCOC(=O)CC(=O)N1CCC(c2nc(C3=NOC(c4ccccc4OS(C)(=O)=O)C3)cs2)CC1 (centres unmarked) [Example I-46]		97	100	2.11^[a]		
CCCCCC(CC)OC(=O)C(C(=O)N1CCC(c2nc(C3=NOC(c4ccccc4OS(C)(=O)=O)C3)cs2)CC1)n1nc(C(F)F)cc1C(F)F (centres unmarked) [Example I-10]			97	4.96^[a]		
C#CCOc1cccc(F)c1C1CC(c2csc(C3CCN(C(=O)C(C(=O)OC(C)C)n4nc(C(F)F)cc4C(F)F)CC3)n2)=NO1 (centres unmarked) [Example I-07]				3.81^[a]	100	97
C#CCOc1ccccc1C1CC(c2csc(C3CCN(C(=O)C(C(=O)OCc4ccccc4)n4nc(C(F)F)cc4C(F)F)CC3)n2)=NO1 (centres unmarked) [Example I-62]				4.16^[a]	100	
CC(C)(C)OC(=O)C(C(=O)N1CCC(c2nc(C3=NOC(c4ccccc4OS(C)(=O)=O)C3)cs2)CC1)n1nc(C(F)F)cc1C(F)F (centres unmarked) [Example I-66]				3.74^[a]	100	
CC(C)OC(=O)C(C(=O)N1CCC(c2nc(C3=NOC(c4ccccc4C=O)C3)cs2)CC1)n1nc(C(F)F)cc1C(F)F (centres unmarked) [Example I-13]				3.70^[a]	94	
CCCCCC(CC)OC(=O)CC(=O)N1CCC(c2nc(C3=NOC(c4ccccc4OS(C)(=O)=O)C3)cs2)CC1 (centres unmarked) [Example I-45]			100	4.07^[a]		
CCCCCC(CC)OC(=O)C(Br)C(=O)N1CCC(c2nc(C3=NOC(c4ccccc4C=O)C3)cs2)CC1 (centres unmarked) [Example I-28]			100	4.83^[a]		
CC(C)OC(=O)CC(=O)N1CCC(c2nc(C3=NOC(c4ccccc4C=O)C3)cs2)CC1 (centres unmarked) [Example I-56]		84	100	2.57^[a]		
